# Tests used:
# Details in all cases: 72 h
# HepG2 [1] = assay: drug sensitivity score (DSS) for viability; higher = more toxic; extreme values may be limits of the assay
# Vero E6 [2] = assay: as above
# Caco-2 [3] = assay: as above
# Calu-3 [4] = assay: as above
# U2OS [5] = assay: as above
# HepG2 [6] = assay: relative viability EC50 (midpoint between 100% and the lowest measured viability); higher = less toxic
# Vero E6 [7] = assay: as above
# Caco-2 [8] = assay: as above
# Calu-3 [9] = assay: as above
# U2OS [10] = assay: as above
# HepG2 [11] = assay: cell viability relative to DMSO; higher = less toxic
# Vero E6 [12] = assay: as above
# Caco-2 [13] = assay: as above
# Calu-3 [14] = assay: as above
# U2OS [15] = assay: as above
SMILES,drug sensitivity score (HepG2 [1]),drug sensitivity score (Vero E6 [2]),drug sensitivity score (Caco-2 [3]),drug sensitivity score (Calu-3 [4]),drug sensitivity score (U2OS [5]),relative viability EC50 (HepG2 [6]) [µM],relative viability EC50 (Vero E6 [7]) [µM],relative viability EC50 (Caco-2 [8]) [µM],relative viability EC50 (Calu-3 [9]) [µM],relative viability EC50 (U2OS [10]) [µM],cell viability (HepG2 [11]; 1 nM) [%],cell viability (HepG2 [11]; 10 nM) [%],cell viability (HepG2 [11]; 100 nM) [%],cell viability (HepG2 [11]; 1000 nM) [%],cell viability (HepG2 [11]; 10000 nM) [%],cell viability (Vero E6 [12]; 1 nM) [%],cell viability (Vero E6 [12]; 10 nM) [%],cell viability (Vero E6 [12]; 100 nM) [%],cell viability (Vero E6 [12]; 1000 nM) [%],cell viability (Vero E6 [12]; 10000 nM) [%],cell viability (Caco-2 [13]; 1 nM) [%],cell viability (Caco-2 [13]; 10 nM) [%],cell viability (Caco-2 [13]; 100 nM) [%],cell viability (Caco-2 [13]; 1000 nM) [%],cell viability (Caco-2 [13]; 10000 nM) [%],cell viability (Calu-3 [14]; 1 nM) [%],cell viability (Calu-3 [14]; 10 nM) [%],cell viability (Calu-3 [14]; 100 nM) [%],cell viability (Calu-3 [14]; 1000 nM) [%],cell viability (Calu-3 [14]; 10000 nM) [%],cell viability (U2OS [15]; 1 nM) [%],cell viability (U2OS [15]; 10 nM) [%],cell viability (U2OS [15]; 100 nM) [%],cell viability (U2OS [15]; 1000 nM) [%],cell viability (U2OS [15]; 10000 nM) [%]
CCCCC[C@H](O)/C=C/[C@H]1[C@H](O)CC(=O)[C@@H]1CCCCCCC(=O)O [alprostadil],0,0,0,0,0,> 10,> 10,> 10,> 10,> 10,91.4,101,98.6,99.4,90.5,101,101,98.7,101,96.1,96.8,99,96.7,98.6,97.8,99,105,88.2,98.7,98.1,104,102,100,96.7,98.7
O[C@@](Cc1nc(CC2(C(F)(F)F)CC2)c[nH]1)(c1ccc(-n2cccn2)cc1)C(F)(F)F [MK-5046],0,0,0.1,0,0,> 10,> 10,> 10,> 10,> 10,99.5,101,104,94.7,96.6,97.8,96.7,98.5,100,98.2,102,115,98.8,97,88.4,107,95.3,105,110,87.5,96,96.9,92.8,96.3,90.8
O=C(CCCl)NCCc1ccccc1 [fenaclon],0,0,0,0,0,> 10,> 10,> 10,> 10,> 10,104,111,99.3,119,96.2,104,105,100,103,91.3,81.8,126,93.7,84.5,109,105,99.1,97.4,96,88.3,101,96.9,100,92.6,103
C[C@H](Cc1cc2c(c(C(N)=O)c1)N(CCCO)CC2)NCCOc1ccccc1OCC(F)(F)F [silodosin],0,0,0,0,0,> 10,> 10,> 10,> 10,> 10,95,97.7,103,102,99.9,93.9,102,97.1,101,108,91.6,93.1,106,92,88.7,96,87.2,97,101,93.6,101,93.5,98.9,95.6,97.6
CCOc1ccc(Cc2cc([C@@H]3O[C@H](SC)[C@@H](O)[C@H](O)[C@H]3O)ccc2Cl)cc1 [sotagliflozin],0,0,0,0,0,> 10,> 10,> 10,> 10,> 10,90.3,101,98.4,101,91.8,94.6,97.2,95.4,95.8,102,98.3,102,100,92.5,91.1,91.4,94.1,112,97.7,99.8,97.7,95,100,97.6,95.4
Cc1c(C)c2c(c(C)c1O)CCC(C)(C(=O)O)O2 (stereo not given) [trolox],0,1.3,0.8,0,0,> 10,> 10,> 10,> 10,> 10,96.8,90.2,92.6,87.6,98.8,94.7,105,102,95.9,77.9,106,103,88.5,93.3,90.9,105,105,98.1,106,104,104,95.6,105,97,103
O=C1N(c2ccccc2)c2ccccc2C1(Cc1ccncc1)Cc1ccncc1 [linopirdine],0,0,0,0,0,> 10,> 10,> 10,> 10,> 10,111,102,94.9,105,102,106,97.3,106,96.9,99.2,91.4,93.2,88.3,98.8,93.1,92.4,98.5,98.9,103,97.2,94.6,101,98.7,103,98.7
CN[C@H](CC(=O)O)C(=O)O [NMDA],0,0,0,0,0,> 10,> 10,> 10,> 10,> 10,99.9,102,110,104,102,107,107,104,99.5,107,101,97.5,103,103,88,85.4,88.6,87.7,105,89.4,95.1,96.8,91.7,102,91.5
CC/C(=C(/CC)c1ccc(O)cc1)c1ccc(O)cc1 [diethylstilbestrol],0,0,0.3,0,0,> 10,> 10,> 10,> 10,> 10,111,98.8,103,98.8,106,95.1,99.8,91.2,98.3,107,97.7,87.3,107,106,81.5,106,96.7,114,103,109,98.6,94,99.5,94.3,96.8
O=C1Nc2ccc(Cl)c3c2C1(CCCCN1CC=C(c2ccc(Cl)cc2)CC1)CCC3 (stereo not given) [DR-4485],5.4,4.6,6.5,5.5,6.2,3.27,1.95,2.5,3.16,2.74,93.7,100,94.1,102,-0.2,100,96.7,92.9,91.1,42.5,103,95.3,99.6,92.3,4.8,105,87.6,103,99.9,1.7,96.2,97.5,98.6,94.7,2.4
"CCCCC/C=C\C=C\CCCCCCCCC(=O)O [trans-10,cis-12-conjugated-linoleic-acid]",0,0,0,0,0,> 10,> 10,> 10,> 10,> 10,107,92,90.8,101,100,109,108,102,102,99.1,94.9,101,96.6,101,99.6,102,96.1,100,96.2,101,97.8,96.8,103,97.4,102
C[C@H]1N=C(N(C)C)N=C(N)N1 [imeglimin],0,0,0,0,0,> 10,> 10,> 10,> 10,> 10,96.4,96.7,97.7,99,100,92.5,96.2,92.8,101,105,86.3,88,96.2,97.3,97.6,97,114,96.9,104,104,99.7,105,96.9,102,103
C[C@]12CC[C@@H]3c4ccc(OC(=O)N(CCCl)CCCl)cc4CC[C@H]3[C@@H]1CC[C@@H]2OP(=O)(O)O [estramustine-phosphate],0,0,0,0,0,> 10,> 10,> 10,> 10,> 10,98.3,90.8,101,95.4,104,95.1,103,94.9,107,92.8,115,89.9,92.2,94.3,94.9,99,105,90.2,99.9,116,102,100,98.7,97.3,99.1
O=c1[nH]c2ccccc2c(=O)n1CCCN1CCN(c2ccccc2)CC1 [pelanserin],0,0,0,0,0,> 10,> 10,> 10,> 10,> 10,91.1,93,95.7,107,93.6,104,105,102,105,95.5,101,102,94,103,91.7,94.5,96.2,103,102,116,97,104,95.6,95.2,94.8

# From the supplement of paper PMC13380429
